Laboratory results as given in the supplement of paper PMC4862054.

Tests used:
[1] = test system: MDA-MB-436; test: normalised response (% of control), CellTiter-Glo; higher = more viable cells (100 = DMSO, 0 = benzethonium chloride kill control); conditions: incubation time: 72 h
Method in brief: (§1)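 Breast cancer cell lines in 20 µl suspension were added to 384-well plates containing compound at 5 concentrations, spaced in 10-fold steps across a 10,000-fold range chosen for each compound, and incubated for 72 h. CellTox Green fluorescence was read at 485/520 nm, followed by CellTiter-Glo luminescence after 10 min at room temperature. Signals on each plate were normalised so that 0.1 % DMSO equals 100 and a positive kill control equals 0. Every value in the table is the normalised signal at one concentration of the series.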

[2] = test system: MDA-MB-468; test: as above; conditions: incubation time: 72 h
Method in brief: as §1

[3] = test system: CAL-148; test: as above; conditions: incubation time: 72 h
Method in brief: as §1

[4] = test system: MFM-223; test: as above; conditions: incubation time: 72 h
Method in brief: as §1

[5] = test system: MDA-MB-453; test: as above; conditions: incubation time: 72 h
Method in brief: as §1

[6] = test system: CAL-148; test: normalised viability (% of control), CellTiter-Blue; higher = more viable cells (about 100 = DMSO control); conditions: incubation time: 72 h
Method: (§2)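 DSRT, CellTiter-Blue viability, 72 h incubation. Signal is normalised to DMSO and benzethonium chloride controls. Value is the normalised response at dose 7.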

[7] = test system: CAL-85-1; test: as above; conditions: incubation time: 72 h
Method: as §2

[8] = test system: MDA-MB-453; test: as above; conditions: incubation time: 72 h
Method: as §2

[9] = test system: HDQ-P1; test: as above; conditions: incubation time: 72 h
Method: as §2

[10] = test system: CAL-51; test: as above; conditions: incubation time: 72 h
Method: as §2

[11] = test system: DU-4475; test: as above; conditions: incubation time: 72 h
Method: as §2

[12] = test system: MDA-MB-436; test: normalised viability (% of control), CellTiter-Blue; higher = more viable cells (about 100 = DMSO control); conditions: incubation time: 72 h
Method in brief: (§3)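 Seeded at 20 µl suspension per well onto compound-loaded 384-well plates, breast cancer cell lines were incubated 72 h. CellTiter-Blue fluorescence at 560/590 nm was then read, with each plate normalised to vehicle (100) and a positive kill control (0). Normalised viability is reported at a single listed concentration of the series.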

[13] = test system: MDA-MB-468; test: as above; conditions: incubation time: 72 h
Method in brief: as §3

[14] = test system: MDA-MB-231; test: as above; conditions: incubation time: 72 h
Method in brief: as §3

[15] = test system: HCC1599; test: as above; conditions: incubation time: 72 h
Method in brief: as §3

[16] = test system: CAL-120; test: as above; conditions: incubation time: 72 h
Method in brief: as §3

[17] = test system: HCC1143; test: as above; conditions: incubation time: 72 h
Method in brief: as §3

[18] = test system: Hs578T; test: as above; conditions: incubation time: 72 h
Method in brief: as §3

[19] = test system: BT-474; test: as above; conditions: incubation time: 72 h
Method in brief: as §3

[20] = test system: SK-BR-3; test: as above; conditions: incubation time: 72 h
Method in brief: as §3

[21] = test system: HCC1937; test: as above; conditions: incubation time: 72 h
Method in brief: as §3

[22] = test system: HDQ-P1; test: as above; conditions: incubation time: 72 h; remark: listed apart in the source
Method in brief: as §3

[23] = test system: CAL-51; test: as above; conditions: incubation time: 72 h; remark: listed apart in the source
Method in brief: as §3

[24] = test system: CAL-51; conditions: 72 h
Method in brief: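 Compound dissolved in 5 µl medium was placed in 384-well plates before 20 µl of breast cancer cell suspension was added, and the plates were incubated for 72 h. Cells then received 2.5 µl CellTiter-Blue for 2 h at 37 °C, and fluorescence was read at 560/590 nm. EC50 values come from percent-inhibition dose-response fits that were censored at the highest concentration, with plates normalised to vehicle and a positive kill control and rows with a zero drug sensitivity score excluded.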

COc1cccc2cc(-c3nc([C@H]4CC[C@H](C(=O)O)CC4)n4ncnc(N)c34)[nH]c12 [OSI-027] (1000 nM)
normalised response [1]: 80.2% | normalised response [2]: 84.2% | normalised response [3]: 93.1% | normalised response [4]: 72.5% | normalised response [5]: 71.2% | normalised viability [6]: 65.1% | normalised viability [7]: 61% | normalised viability [8]: 37.5% | normalised viability [9]: 39.3% | normalised viability [10]: 61.8% | normalised viability [11]: 68.1%

C=CC[C@@H]1/C=C(\C)C[C@H](C)C[C@H](OC)[C@H]2O[C@@](O)(C(=O)C(=O)N3CCCC[C@H]3C(=O)O[C@H](/C(C)=C/[C@@H]3CC[C@@H](O)[C@H](OC)C3)[C@H](C)[C@@H](O)CC1=O)[C@H](C)C[C@@H]2OC [Tacrolimus] (1000 nM)
normalised response [1]: 99.7% | normalised response [2]: 105% | normalised response [3]: 96.6% | normalised response [4]: 101% | normalised response [5]: 108% | normalised viability [6]: 103% | normalised viability [7]: 95.4% | normalised viability [8]: 108% | normalised viability [9]: 111% | normalised viability [10]: 96.6% | normalised viability [11]: 115%

Clc1ccc(C(c2ccccc2Cl)C(Cl)Cl)cc1 (configuration not stated) [Mitotane] (1000 nM)
normalised response [1]: 98.2% | normalised response [2]: 98.7% | normalised response [3]: 95.7% | normalised response [4]: 97.4% | normalised response [5]: 92.5% | normalised viability [6]: 108% | normalised viability [7]: 83.2% | normalised viability [8]: 97.5% | normalised viability [9]: 104% | normalised viability [10]: 105% | normalised viability [11]: 87.9%

Nc1ccn([C@@H]2O[C@H](CO)[C@@H](O)[C@@H]2O)c(=O)n1 [Cytarabine] (1000 nM)
normalised response [1]: 46.4% | normalised response [2]: 74.3% | normalised response [3]: 55.5% | normalised response [4]: 101% | normalised response [5]: 105% | normalised viability [6]: 44.6% | normalised viability [7]: 88.5% | normalised viability [8]: 62.4% | normalised viability [9]: 82.2% | normalised viability [10]: 29.8% | normalised viability [11]: 39.7%

Cc1ccc(F)c(NC(=O)Nc2ccc(-c3cccc4[nH]nc(N)c34)cc2)c1 [Linifanib] (100 nM)
normalised response [1]: 112% | normalised response [2]: 104% | normalised response [3]: 109% | normalised response [4]: 110% | normalised response [5]: 112% | normalised viability [6]: 103% | normalised viability [7]: 87.4% | normalised viability [8]: 100% | normalised viability [9]: 113% | normalised viability [10]: 108% | normalised viability [11]: 103%

S=c1[nH]cnc2nc[nH]c12 [Mercaptopurine] (1000 nM)
normalised response [1]: 88.7% | normalised response [2]: 91.8% | normalised response [3]: 85% | normalised response [4]: 93.7% | normalised response [5]: 98.6% | normalised viability [6]: 100% | normalised viability [7]: 78.4% | normalised viability [8]: 110% | normalised viability [9]: 90.3% | normalised viability [10]: 101% | normalised viability [11]: 90.6%

S=c1[nH]cnc2nc[nH]c12 [Mercaptopurine]
normalised viability ([12]; 10 nM): 89.8% | normalised viability ([12]; 1000 nM): 74.1% | normalised viability ([12]; 10000 nM): 83% | normalised viability ([13]; 10 nM): 108% | normalised viability ([13]; 1000 nM): 64.9% | normalised viability ([13]; 10000 nM): 69% | normalised viability ([14]; 10 nM): 101% | normalised viability ([14]; 1000 nM): 95.9% | normalised viability ([14]; 10000 nM): 88.7% | normalised viability ([15]; 10 nM): 103% | normalised viability ([15]; 1000 nM): 96.3% | normalised viability ([15]; 10000 nM): 106% | normalised viability ([16]; 10 nM): 88.1% | normalised viability ([16]; 1000 nM): 83.7% | normalised viability ([16]; 10000 nM): 47.3% | normalised viability ([17]; 10 nM): 85.8% | normalised viability ([17]; 1000 nM): 95.7% | normalised viability ([17]; 10000 nM): 88.5% | normalised viability ([18]; 10 nM): 118% | normalised viability ([18]; 1000 nM): 123% | normalised viability ([18]; 10000 nM): 86.7% | normalised viability ([19]; 10 nM): 116% | normalised viability ([19]; 1000 nM): 108% | normalised viability ([19]; 10000 nM): 112% | normalised viability ([20]; 10 nM): 107% | normalised viability ([20]; 1000 nM): 95.6% | normalised viability ([20]; 10000 nM): 63.5% | normalised viability ([21]; 10 nM): 87.5% | normalised viability ([21]; 1000 nM): 86.9% | normalised viability ([21]; 10000 nM): 48.1% | normalised viability ([22]; 3 nM): 123% | normalised viability ([22]; 30 nM): 110% | normalised viability ([22]; 100 nM): 100% | normalised viability ([23]; 3 nM): 105% | normalised viability ([23]; 30 nM): 101% | normalised viability ([23]; 100 nM): 106% | EC50, CellTiter-Blue viability [24]: 3.81 µM

COc1cccc2c1C(=O)c1c(O)c3c(c(O)c1C2=O)C[C@@](O)(C(=O)CO)C[C@@H]3O[C@H]1C[C@H](N)[C@H](O)[C@H](C)O1 [Doxorubicin] (100 nM)
normalised response [1]: 85.4% | normalised response [2]: 71.4% | normalised response [3]: 82.7% | normalised response [4]: 115% | normalised response [5]: 117% | normalised viability [6]: 39.1% | normalised viability [7]: 77.5% | normalised viability [8]: 98.8% | normalised viability [9]: 70.9% | normalised viability [10]: 66.1% | normalised viability [11]: 59.1%

CS(=O)(=O)c1ccc(C(=O)Nc2ccc(Cl)c(-c3ccccn3)c2)c(Cl)c1 [Vismodegib] (1000 nM)
normalised response [1]: 93.3% | normalised response [2]: 94.9% | normalised response [3]: 98.8% | normalised response [4]: 95.2% | normalised response [5]: 89.6% | normalised viability [6]: 98.3% | normalised viability [7]: 97.1% | normalised viability [8]: 98.3% | normalised viability [9]: 92.4% | normalised viability [10]: 99.1% | normalised viability [11]: 114%

C[C@]1(c2nc3c(C(N)=O)cccc3[nH]2)CCCN1 [Veliparib] (1000 nM)
normalised response [1]: 95.4% | normalised response [2]: 104% | normalised response [3]: 96.2% | normalised response [4]: 107% | normalised response [5]: 109% | normalised viability [6]: 106% | normalised viability [7]: 73.3% | normalised viability [8]: 84.4% | normalised viability [9]: 97.1% | normalised viability [10]: 107% | normalised viability [11]: 82.1%

C=CCNC1=C2C[C@@H](C)C[C@H](OC)[C@H](O)[C@@H](C)/C=C(\C)[C@H](OC(N)=O)[C@@H](OC)/C=C\C=C(/C)C(=O)NC(=CC1=O)C2=O [Tanespimycin] (1000 nM)
normalised response [1]: 43.3% | normalised response [2]: 42.3% | normalised response [3]: 24.1% | normalised response [4]: 39.2% | normalised response [5]: 28.9% | normalised viability [6]: 20.8% | normalised viability [7]: 24.7% | normalised viability [8]: 7.14% | normalised viability [9]: 22.9% | normalised viability [10]: 24.2% | normalised viability [11]: 0.99%
